Measurements taken from US11358957B2, “Microbiocidal oxadiazole derivatives” (SYNGENTA PARTICIPATIONS AG, priority 2017, dated 2022).

Legend:
[1] = system: Puccinia recondita f. Sp. Tritici; assay: Fungicidal activity against Puccinia recondita f. sp. tritici / wheat / leaf disc preventative (brown rust); assay type: in vivo; conditions: foliar, 200 ppm in the applied formulation, wheat leaf segments cv. Kanzler, preventative (inoculated 1 day after application), compared to untreated, read-out: disease control
How it was run: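 Segments of wheat cv. Kanzler on water agar were sprayed with compound and inoculated with spores 1 day later. They were kept at 19 °C, 75% rh and 12 h light/12 h dark. Percent disease control versus untreated was scored 7–9 days after application; compounds were tested at 200 ppm.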

Phakopsora pachyrhizi = assay: Fungicidal activity against Phakopsora pachyrhizi / soybean / leaf disc preventative (Asian soybean rust); assay type: in vivo; conditions: foliar, 200 ppm in the applied formulation, soybean leaf disks, compared to untreated, read-out: disease control
Procedure: Leaf disks or leaf segments of various plant species are cut from plants grown in a greenhouse. The cut leaf disks or segments are placed in multiwell plates (24-well format) onto water agar. The leaf disks are sprayed with a test solution before (preventative) or after (curative) inoculation. Compounds to be tested are prepared as DMSO solutions (max. 10 mg/mL) which are diluted to the appropriate concentration with 0.025% Tween20 just before spraying. The inoculated leaf disks or segments are incubated under defined conditions (temperature, relative humidity, light, etc.) according to the respective test system. A single evaluation of disease level is carried out 3 to 14 days after inoculation, depending on the pathosystem. Percent disease control relative to the untreated check leaf disks or segments is then calculated. Soybean leaf disks are placed on water agar in multiwell plates (24-well format) and sprayed with the formulated test compound diluted in water. One day after application leaf discs are inoculated by spraying a spore suspension on the lower leaf surface. After an incubation period in a climate cabinet of 24-36 hours in darkness at 20° C. and 75% rh leaf disc are kept at 20° C. with 12 h light/day and 75% rh. The activity of a compound is assessed as percent disease control compared to untreated when an appropriate level of disease damage appears in untreated check leaf disks (12 to 14 days after application). The following compounds at 200 ppm in the applied formulation give at least 80% disease control in this test when compared to untreated control leaf disks under the same conditions, which show extensive disease development.

[2] = system: Puccinia recondita f. Sp. Tritici; assay: Fungicidal activity against Puccinia recondita f. sp. tritici / wheat / leaf disc curative (brown rust); assay type: in vivo; conditions: foliar, 24 h, 200 ppm in the applied formulation, wheat leaf segments cv. Kanzler, curative (applied 1 day after inoculation), compared to untreated, read-out: disease control
How it was run: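 Wheat leaf segments (cv. Kanzler) on agar were inoculated with brown rust spores, kept dark at 19 °C and 75% RH, then sprayed 1 day later with compound (DMSO stock diluted in 0.025% Tween20). Under 12 h light/12 h dark at 19 °C, percent disease control versus untreated was scored 6–8 days after application; 200 ppm applied.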

[3] = system: Glomerella lagenarium (Colletotrichum lagenarium); assay: Fungicidal activity against Glomerella lagenarium (Colletotrichum lagenarium) liquid culture / cucumber / preventative (anthracnose); assay type: cell-based; conditions: Colletotrichum orbiculare; 20 ppm in the applied formulation; liquid culture (PDB), inhibition of growth measured photometrically 3 to 4 days after application; compared to untreated; read-out: disease control
How it was run: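 Conidia from cryogenic storage mixed into potato dextrose broth and added to compound in DMSO in microtiter plates. Incubated at 24° C.; growth inhibition read photometrically 3 to 4 days after application. Disease control expressed relative to untreated control, with compound at 20 ppm in the applied formulation.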

Row | SMILES | melting point | pest or weed control at 200 ppm [1] | pest or weed control at 200 ppm (Phakopsora pachyrhizi) | pest or weed control at 200 ppm [2] | inhibition of growth at 20 ppm [3]
1 | CC(c1ccc(-c2noc(C(F)(F)F)n2)s1)n1cc(C(=O)N2CCC2)cn1 (centres unmarked) [Compound 1.35, azetidin-1-yl-[1-[1-[5-[5-(trifluoromethyl)-1,2,4-oxadiazol-3-yl]-2-thienyl]ethyl]pyrazol-4-yl]methanone] | 76 to 78 °C | ≥ 80% | ≥ 80% | ≥ 80% | ≥ 80%
2 | CNC(=O)c1ncnn1Cc1ccc(-c2noc(C(F)(F)F)n2)s1 [Compound 1.48, N-methyl-2-[[5-[5-(trifluoromethyl)-1,2,4-oxadiazol-3-yl]-2-thienyl]methyl]-1,2,4-triazole-3-carboxamide] | 132 to 140 °C | ≥ 80% | ≥ 80% | ≥ 80% | ≥ 80%
3 | CNC(=O)c1ccn(Cc2ccc(-c3noc(C(F)(F)F)n3)s2)n1 [Compound 1.51, N-methyl-1-[[5-[5-(trifluoromethyl)-1,2,4-oxadiazol-3-yl]-2-thienyl]methyl]pyrazole-3-carboxamide] | 124 to 126 °C | ≥ 80% | ≥ 80% | ≥ 80% | ≥ 80%
4 | CCCOC(=O)c1ccn(Cc2ccc(-c3noc(C(F)(F)F)n3)s2)n1 [Compound 1.46, propyl 1-[[5-[5-(trifluoromethyl)-1,2,4-oxadiazol-3-yl]-2-thienyl]methyl]pyrazole-3-carboxylate] | 88 to 94 °C | ≥ 80% | ≥ 80% | ≥ 80% | ≥ 80%
5 | COCCNC(=O)c1cnn(Cc2ccc(-c3noc(C(F)(F)F)n3)s2)c1 [Compound 1.39, N-(2-methoxyethyl)-1-[[5-[5-(trifluoromethyl)-1,2,4-oxadiazol-3-yl]-2-thienyl]methyl]pyrazole-4-carboxamide] | 135.3 to 137.9 °C | ≥ 80% | ≥ 80% | ≥ 80% | ≥ 80%
6 | CCOC(=O)c1ccn(Cc2ccc(-c3noc(C(F)(F)F)n3)s2)n1 [Compound 1.42, ethyl 1-[[5-[5-(trifluoromethyl)-1,2,4-oxadiazol-3-yl]-2-thienyl]methyl]pyrazole-3-carboxylate] | 120 to 124 °C | ≥ 80% | ≥ 80% | ≥ 80% | ≥ 80%
7 | CNC(=O)c1ncn(Cc2ccc(-c3noc(C(F)(F)F)n3)s2)n1 [Compound 1.49, N-methyl-1-[[5-[5-(trifluoromethyl)-1,2,4-oxadiazol-3-yl]-2-thienyl]methyl]-1,2,4-triazole-3-carboxamide] | 198 to 218 °C | ≥ 80% | ≥ 80% | ≥ 80% | ≥ 80%
8 | CN(C)c1ncn(Cc2ccc(-c3noc(C(F)(F)F)n3)s2)n1 [Compound 1.4, N,N-dimethyl-1-[[5-[5-(trifluoromethyl)-1,2,4-oxadiazol-3-yl]-2-thienyl]methyl]-1,2,4-triazol-3-amine] | 113 to 116 °C | ≥ 80% | ≥ 80% | ≥ 80% | ≥ 80%
9 | CCOC(=O)c1ncn(Cc2ccc(-c3noc(C(F)(F)F)n3)s2)n1 [Compound 1.40, ethyl 1-[[5-[5-(trifluoromethyl)-1,2,4-oxadiazol-3-yl]-2-thienyl]methyl]-1,2,4-triazole-3-carboxylate] | 136 to 140 °C | ≥ 80% | ≥ 80% | ≥ 80% | ≥ 80%
10 | CNC(=O)c1cnn(Cc2ccc(-c3noc(C(F)(F)F)n3)s2)c1 [Compound 1.38, N-methyl-1-[[5-[5-(trifluoromethyl)-1,2,4-oxadiazol-3-yl]-2-thienyl]methyl]pyrazole-4-carboxamide] | 150.8 to 155.7 °C | ≥ 80% | ≥ 80% | ≥ 80% | ≥ 80%
11 | CCCOC(=O)c1ncn(Cc2ccc(-c3noc(C(F)(F)F)n3)s2)n1 [Compound 1.43, propyl 1-[[5-[5-(trifluoromethyl)-1,2,4-oxadiazol-3-yl]-2-thienyl]methyl]-1,2,4-triazole-3-carboxylate] | 140 to 160 °C | ≥ 80% | ≥ 80% | ≥ 80% | ≥ 80%

Further lines, with some results ahead:

Row | melting point | SMILES | pest or weed control at 200 ppm [1] | pest or weed control at 200 ppm (Phakopsora pachyrhizi) | pest or weed control at 200 ppm [2] | inhibition of growth at 20 ppm [3]
12 | 168 to 178 °C | CONC(=O)c1ncn(Cc2ccc(-c3noc(C(F)(F)F)n3)s2)n1 [Compound 1.59, N-methoxy-1-[[5-[5-(trifluoromethyl)-1,2,4-oxadiazol-3-yl]-2-thienyl]methyl]-1,2,4-triazole-3-carboxamide] | ≥ 80% | ≥ 80% | ≥ 80% | ≥ 80%
13 | 134 to 141 °C | CONC(=O)c1ccn(Cc2ccc(-c3noc(C(F)(F)F)n3)s2)n1 [Compound 1.56, N-methoxy-1-[[5-[5-(trifluoromethyl)-1,2,4-oxadiazol-3-yl]-2-thienyl]methyl]pyrazole-3-carboxamide] | ≥ 80% | ≥ 80% | ≥ 80% | ≥ 80%
14 | 148 to 151 °C | CNC(=O)c1ccnn1Cc1ccc(-c2noc(C(F)(F)F)n2)s1 [Compound 1.52, N-methyl-2-[[5-[5-(trifluoromethyl)-1,2,4-oxadiazol-3-yl]-2-thienyl]methyl]pyrazole-3-carboxamide] | ≥ 80% | ≥ 80% | ≥ 80% | ≥ 80%
15 | 90 to 96 °C | CN(C)C(=O)c1ccn(Cc2ccc(-c3noc(C(F)(F)F)n3)s2)n1 [Compound 1.57, N,N-dimethyl-1-[[5-[5-(trifluoromethyl)-1,2,4-oxadiazol-3-yl]-2-thienyl]methyl]pyrazole-3-carboxamide] | ≥ 80% | ≥ 80% | ≥ 80% | ≥ 80%
16 | 105 to 115 °C | CONC(=O)c1ccnn1Cc1ccc(-c2noc(C(F)(F)F)n2)s1 [Compound 1.60, N-methoxy-2-[[5-[5-(trifluoromethyl)-1,2,4-oxadiazol-3-yl]-2-thienyl]methyl]pyrazole-3-carboxamide] | ≥ 80% | ≥ 80% | ≥ 80% | ≥ 80%
